In ChEMBL document CHEMBL4052759, “Discovery of DS79182026: A potent orally active hepcidin production inhibitor” (Bioorg Med Chem Lett, 2017):

Legend:
[1] = target: Death-associated protein kinase 1 (Homo sapiens) (UniProt P53355); test: Inhibition of DAPK1 (unknown origin) at 0.49 uM relative to control
[2] = target: CDK6/cyclin D3 (Homo sapiens) (UniProt P30281+Q00534); test: Inhibition of CDK6/CyclinD3 (unknown origin) at 0.49 uM relative to control; type: protein-complex assay
[3] = target: Serine/threonine-protein kinase D1 (Homo sapiens) (UniProt Q15139); test: Inhibition of PKD1 (unknown origin) at 0.49 uM relative to control
[4] = target: Serine/threonine-protein kinase Chk2 (Homo sapiens) (UniProt O96017); test: Inhibition of CHK2 (unknown origin) at 0.49 uM relative to control
[5] = target: Casein kinase I isoform gamma-3 (Homo sapiens) (UniProt Q9Y6M4); test: Inhibition of CSNK1G3 (unknown origin) at 0.49 uM relative to control
[6] = target: Casein kinase I isoform gamma-2 (Homo sapiens) (UniProt P78368); test: Inhibition of Casein kinase 1g2 (unknown origin) at 0.49 uM relative to control
[7] = test system: Tyrosine-protein kinase ABL1 (Homo sapiens), P00519 [T315I]; test: Inhibition of Abl T315I mutant (unknown origin) at 0.49 uM relative to control
[8] = target: Rho-associated protein kinase 2 (Homo sapiens) (UniProt O75116); test: Inhibition of ROCK2 (unknown origin) at 0.49 uM relative to control
[9] = target: Serine/threonine-protein kinase MARK2 (Homo sapiens) (UniProt Q7KZI7); test: Inhibition of MARK2 (unknown origin) at 0.49 uM relative to control
[10] = target: Insulin receptor (Homo sapiens) (UniProt P06213); test: Inhibition of INSR (unknown origin) at 0.49 uM relative to control
[11] = test system: Epidermal growth factor receptor (Homo sapiens), P00533 [T790M]; test: Inhibition of EGFR T790M mutant (unknown origin) at 0.49 uM relative to control
[12] = test system: Tyrosine-protein kinase ABL1 (Homo sapiens), P00519 [H396P]; test: Inhibition of Abl H396P mutant (unknown origin) at 0.45 uM relative to control
[13] = target: Inhibitor of nuclear factor kappa-B kinase subunit beta (Homo sapiens) (UniProt O14920); test: Inhibition of IKK-beta (unknown origin) at 0.45 uM relative to control
[14] = target: T1, cGMP-dependent protein kinase 1 (Homo sapiens) (UniProt Q13976); test: Inhibition of PKG1-beta (unknown origin) at 0.45 uM relative to control
T1 sequence (whole entry): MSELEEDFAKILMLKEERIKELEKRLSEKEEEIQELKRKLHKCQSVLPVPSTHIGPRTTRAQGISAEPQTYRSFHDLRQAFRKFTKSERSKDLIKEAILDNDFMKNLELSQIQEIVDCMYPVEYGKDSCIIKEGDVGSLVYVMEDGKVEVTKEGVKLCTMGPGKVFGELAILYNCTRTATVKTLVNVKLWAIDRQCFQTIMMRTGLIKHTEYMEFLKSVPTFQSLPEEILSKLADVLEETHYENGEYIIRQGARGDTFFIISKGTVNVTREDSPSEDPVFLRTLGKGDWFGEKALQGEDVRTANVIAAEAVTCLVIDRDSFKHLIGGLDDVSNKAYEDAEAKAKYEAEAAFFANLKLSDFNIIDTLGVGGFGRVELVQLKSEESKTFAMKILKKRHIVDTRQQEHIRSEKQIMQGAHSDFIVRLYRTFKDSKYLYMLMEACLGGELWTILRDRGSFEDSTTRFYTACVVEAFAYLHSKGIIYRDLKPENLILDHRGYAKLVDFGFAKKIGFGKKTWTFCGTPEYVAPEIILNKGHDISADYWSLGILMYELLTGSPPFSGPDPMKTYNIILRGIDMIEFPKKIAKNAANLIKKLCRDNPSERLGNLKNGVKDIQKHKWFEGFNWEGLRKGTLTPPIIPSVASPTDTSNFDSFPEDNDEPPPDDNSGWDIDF

[15] = target: Tyrosine-protein kinase Fes/Fps (Homo sapiens) (UniProt P07332); test: Inhibition of FES (unknown origin) at 0.45 uM relative to control
[16] = target: SRSF protein kinase 3 (Homo sapiens) (UniProt Q9UPE1); test: Inhibition of MSSK1 (unknown origin) at 0.45 uM relative to control
[17] = target: Serine/threonine-protein kinase 4 (Homo sapiens) (UniProt Q13043); test: Inhibition of MST1 (unknown origin) at 0.45 uM relative to control
[18] = target: T2, MAP kinase-activated protein kinase 5 (Homo sapiens) (UniProt Q8IW41); test: Inhibition of PRAK (unknown origin) at 0.45 uM relative to control
T2 sequence (whole entry): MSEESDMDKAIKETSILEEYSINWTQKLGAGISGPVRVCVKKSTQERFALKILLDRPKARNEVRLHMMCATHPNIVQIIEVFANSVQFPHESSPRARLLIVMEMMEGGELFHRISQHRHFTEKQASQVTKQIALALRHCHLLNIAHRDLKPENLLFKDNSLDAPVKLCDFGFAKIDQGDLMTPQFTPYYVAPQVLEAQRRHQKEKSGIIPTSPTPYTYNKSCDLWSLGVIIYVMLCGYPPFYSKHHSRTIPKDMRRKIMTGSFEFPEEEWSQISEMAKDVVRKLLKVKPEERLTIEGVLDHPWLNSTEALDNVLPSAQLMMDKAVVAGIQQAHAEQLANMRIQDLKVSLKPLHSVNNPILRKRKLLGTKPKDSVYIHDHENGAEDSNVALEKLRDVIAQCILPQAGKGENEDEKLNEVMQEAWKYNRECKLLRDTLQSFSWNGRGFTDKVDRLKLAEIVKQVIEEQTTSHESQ

[19] = target: Hepatocyte growth factor receptor (Homo sapiens) (UniProt P08581); test: Inhibition of MET (unknown origin) at 0.45 uM relative to control
[20] = target: SRSF protein kinase 2 (Homo sapiens) (UniProt P78362); test: Inhibition of SRPK2 (unknown origin) at 0.45 uM relative to control
[21] = target: Tyrosine-protein kinase receptor TYRO3 (Homo sapiens) (UniProt Q06418); test: Inhibition of TYRO3 (unknown origin) at 0.45 uM relative to control
[22] = target: Protein kinase C iota type (Homo sapiens) (UniProt P41743); test: Inhibition of PKC-iota (unknown origin) at 0.45 uM relative to control
[23] = target: Fibroblast growth factor receptor 1 (Homo sapiens) (UniProt P11362); test: Inhibition of FGFR1 (unknown origin) at 0.45 uM relative to control
[24] = target: Serine/threonine-protein kinase PAK 2 (Homo sapiens) (UniProt Q13177); test: Inhibition of PAK2 (unknown origin) at 0.078 uM relative to control
[25] = target: Dual specificity tyrosine-phosphorylation-regulated kinase 1A (Homo sapiens) (UniProt Q13627); test: Inhibition of DYRK1a (unknown origin) at 0.078 uM relative to control

Chain of Tyrosine-protein kinase receptor TYRO3 (Homo sapiens) (Q06418 whole entry): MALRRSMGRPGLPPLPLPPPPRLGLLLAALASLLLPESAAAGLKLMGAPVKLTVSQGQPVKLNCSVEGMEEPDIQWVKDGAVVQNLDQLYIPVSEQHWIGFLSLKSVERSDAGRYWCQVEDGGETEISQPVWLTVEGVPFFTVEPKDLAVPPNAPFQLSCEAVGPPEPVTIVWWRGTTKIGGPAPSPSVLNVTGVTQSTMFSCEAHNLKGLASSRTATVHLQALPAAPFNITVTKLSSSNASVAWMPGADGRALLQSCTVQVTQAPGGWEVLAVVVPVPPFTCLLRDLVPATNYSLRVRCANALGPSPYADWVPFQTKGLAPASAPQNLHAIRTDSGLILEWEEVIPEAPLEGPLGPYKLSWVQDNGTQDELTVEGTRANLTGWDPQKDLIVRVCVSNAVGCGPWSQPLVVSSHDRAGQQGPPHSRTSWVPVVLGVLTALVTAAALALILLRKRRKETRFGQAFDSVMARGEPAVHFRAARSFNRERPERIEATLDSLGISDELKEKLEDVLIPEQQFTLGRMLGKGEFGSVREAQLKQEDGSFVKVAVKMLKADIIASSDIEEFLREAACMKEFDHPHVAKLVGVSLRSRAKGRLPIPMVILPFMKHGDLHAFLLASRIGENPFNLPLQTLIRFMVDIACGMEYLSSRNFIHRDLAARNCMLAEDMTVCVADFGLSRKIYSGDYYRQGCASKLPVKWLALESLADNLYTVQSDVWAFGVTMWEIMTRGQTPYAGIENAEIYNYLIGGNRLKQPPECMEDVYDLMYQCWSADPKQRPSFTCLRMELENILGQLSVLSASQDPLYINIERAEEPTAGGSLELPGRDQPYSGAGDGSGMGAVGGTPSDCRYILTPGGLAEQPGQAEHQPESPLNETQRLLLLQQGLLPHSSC
Chain of Casein kinase I isoform gamma-2 (Homo sapiens) (P78368 whole entry, looked up, canonical isoform): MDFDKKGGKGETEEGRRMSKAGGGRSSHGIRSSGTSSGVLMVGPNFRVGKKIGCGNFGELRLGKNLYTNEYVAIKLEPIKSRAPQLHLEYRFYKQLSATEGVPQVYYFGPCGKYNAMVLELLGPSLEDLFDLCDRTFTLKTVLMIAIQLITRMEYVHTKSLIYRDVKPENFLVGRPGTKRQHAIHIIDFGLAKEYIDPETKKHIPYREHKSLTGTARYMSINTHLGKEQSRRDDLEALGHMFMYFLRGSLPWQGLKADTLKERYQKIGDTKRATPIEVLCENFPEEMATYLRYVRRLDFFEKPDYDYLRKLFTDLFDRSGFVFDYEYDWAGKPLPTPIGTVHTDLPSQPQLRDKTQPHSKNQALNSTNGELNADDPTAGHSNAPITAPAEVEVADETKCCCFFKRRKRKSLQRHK
Chain of Rho-associated protein kinase 2 (Homo sapiens) (O75116 whole entry, looked up): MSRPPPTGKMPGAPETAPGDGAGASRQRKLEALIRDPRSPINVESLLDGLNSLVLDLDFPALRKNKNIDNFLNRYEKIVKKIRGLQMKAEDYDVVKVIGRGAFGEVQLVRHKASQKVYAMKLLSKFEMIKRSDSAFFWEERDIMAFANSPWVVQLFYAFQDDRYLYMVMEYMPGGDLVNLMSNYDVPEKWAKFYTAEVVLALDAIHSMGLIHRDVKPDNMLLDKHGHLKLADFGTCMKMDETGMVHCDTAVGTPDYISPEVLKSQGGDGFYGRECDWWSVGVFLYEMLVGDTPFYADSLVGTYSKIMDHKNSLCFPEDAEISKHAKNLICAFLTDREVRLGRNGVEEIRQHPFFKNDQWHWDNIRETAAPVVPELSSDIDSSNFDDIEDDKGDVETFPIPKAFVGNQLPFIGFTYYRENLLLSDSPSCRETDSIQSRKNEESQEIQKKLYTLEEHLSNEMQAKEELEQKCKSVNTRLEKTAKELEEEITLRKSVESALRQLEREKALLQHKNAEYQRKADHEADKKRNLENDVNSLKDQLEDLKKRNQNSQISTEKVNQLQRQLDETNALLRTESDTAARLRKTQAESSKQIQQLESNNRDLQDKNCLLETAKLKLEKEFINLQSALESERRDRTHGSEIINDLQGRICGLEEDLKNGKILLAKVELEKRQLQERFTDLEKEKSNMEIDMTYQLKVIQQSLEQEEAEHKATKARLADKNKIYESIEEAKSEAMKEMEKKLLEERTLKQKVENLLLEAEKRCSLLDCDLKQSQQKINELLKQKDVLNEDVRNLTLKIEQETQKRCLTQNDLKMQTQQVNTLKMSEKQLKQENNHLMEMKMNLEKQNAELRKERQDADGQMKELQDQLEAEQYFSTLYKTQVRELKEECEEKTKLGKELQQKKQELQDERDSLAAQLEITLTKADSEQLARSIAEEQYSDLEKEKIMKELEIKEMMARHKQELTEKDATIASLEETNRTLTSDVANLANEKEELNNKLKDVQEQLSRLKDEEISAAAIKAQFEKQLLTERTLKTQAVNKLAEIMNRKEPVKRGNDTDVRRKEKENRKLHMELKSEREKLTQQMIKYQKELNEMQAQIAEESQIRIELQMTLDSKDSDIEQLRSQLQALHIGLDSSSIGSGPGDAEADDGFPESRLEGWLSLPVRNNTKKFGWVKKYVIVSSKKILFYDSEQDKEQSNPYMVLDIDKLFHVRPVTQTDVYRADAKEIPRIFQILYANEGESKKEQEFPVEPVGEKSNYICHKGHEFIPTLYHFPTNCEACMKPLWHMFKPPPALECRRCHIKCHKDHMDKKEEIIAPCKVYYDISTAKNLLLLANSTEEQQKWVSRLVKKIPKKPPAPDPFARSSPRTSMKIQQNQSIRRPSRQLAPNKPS
Chain of SRSF protein kinase 3 (Homo sapiens) (Q9UPE1 whole entry): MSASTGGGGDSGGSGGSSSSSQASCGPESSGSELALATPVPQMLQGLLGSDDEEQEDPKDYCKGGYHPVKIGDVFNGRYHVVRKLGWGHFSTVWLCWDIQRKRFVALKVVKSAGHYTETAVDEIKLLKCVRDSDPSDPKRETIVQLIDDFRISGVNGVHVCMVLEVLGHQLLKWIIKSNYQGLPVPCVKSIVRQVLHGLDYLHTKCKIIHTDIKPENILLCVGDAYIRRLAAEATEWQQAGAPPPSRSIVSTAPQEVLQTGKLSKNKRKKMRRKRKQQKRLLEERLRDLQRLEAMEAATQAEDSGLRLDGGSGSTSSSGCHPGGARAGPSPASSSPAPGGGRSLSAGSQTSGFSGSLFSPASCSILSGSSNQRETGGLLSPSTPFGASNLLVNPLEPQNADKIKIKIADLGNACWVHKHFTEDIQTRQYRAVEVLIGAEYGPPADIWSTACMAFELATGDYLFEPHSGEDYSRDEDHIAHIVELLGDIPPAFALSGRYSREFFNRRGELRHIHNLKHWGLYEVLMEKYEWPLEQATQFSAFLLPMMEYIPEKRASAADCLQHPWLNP
Chain of Casein kinase I isoform gamma-3 (Homo sapiens) (Q9Y6M4 whole entry, looked up, canonical isoform): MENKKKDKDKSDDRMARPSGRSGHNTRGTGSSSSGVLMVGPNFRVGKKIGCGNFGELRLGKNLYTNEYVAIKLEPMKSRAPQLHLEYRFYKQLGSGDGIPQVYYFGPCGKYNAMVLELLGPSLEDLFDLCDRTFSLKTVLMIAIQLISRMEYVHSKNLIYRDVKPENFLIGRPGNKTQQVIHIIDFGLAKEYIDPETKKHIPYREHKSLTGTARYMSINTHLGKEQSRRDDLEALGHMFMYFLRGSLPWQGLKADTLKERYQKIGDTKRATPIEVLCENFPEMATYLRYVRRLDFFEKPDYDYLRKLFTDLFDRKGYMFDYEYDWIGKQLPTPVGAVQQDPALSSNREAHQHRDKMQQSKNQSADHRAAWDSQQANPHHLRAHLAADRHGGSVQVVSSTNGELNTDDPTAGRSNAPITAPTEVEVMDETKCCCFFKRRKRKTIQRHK
Chain of Fibroblast growth factor receptor 1 (Homo sapiens) (P11362 22-822 limits assumed): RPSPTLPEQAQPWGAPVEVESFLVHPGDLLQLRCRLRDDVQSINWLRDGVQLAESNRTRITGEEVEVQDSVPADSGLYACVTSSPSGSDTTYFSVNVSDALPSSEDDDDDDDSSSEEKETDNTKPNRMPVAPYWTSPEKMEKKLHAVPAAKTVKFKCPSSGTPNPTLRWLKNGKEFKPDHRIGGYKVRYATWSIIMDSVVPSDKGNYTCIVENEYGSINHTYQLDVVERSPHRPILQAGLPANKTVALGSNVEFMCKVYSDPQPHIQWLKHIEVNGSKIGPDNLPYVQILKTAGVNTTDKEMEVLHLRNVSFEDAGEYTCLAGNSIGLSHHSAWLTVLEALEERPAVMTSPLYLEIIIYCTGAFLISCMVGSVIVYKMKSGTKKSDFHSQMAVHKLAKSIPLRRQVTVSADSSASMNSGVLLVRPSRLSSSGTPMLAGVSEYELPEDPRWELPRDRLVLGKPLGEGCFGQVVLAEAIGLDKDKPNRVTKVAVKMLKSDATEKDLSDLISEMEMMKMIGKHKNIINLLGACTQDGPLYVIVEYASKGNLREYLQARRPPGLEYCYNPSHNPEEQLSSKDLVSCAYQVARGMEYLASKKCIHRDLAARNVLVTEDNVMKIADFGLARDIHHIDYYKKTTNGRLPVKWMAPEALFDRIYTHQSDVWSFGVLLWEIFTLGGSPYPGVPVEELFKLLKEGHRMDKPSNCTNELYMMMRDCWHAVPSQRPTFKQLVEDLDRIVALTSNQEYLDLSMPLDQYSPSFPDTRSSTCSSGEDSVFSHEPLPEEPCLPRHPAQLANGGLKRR
Chain of Serine/threonine-protein kinase Chk2 (Homo sapiens) (O96017 whole entry, canonical isoform): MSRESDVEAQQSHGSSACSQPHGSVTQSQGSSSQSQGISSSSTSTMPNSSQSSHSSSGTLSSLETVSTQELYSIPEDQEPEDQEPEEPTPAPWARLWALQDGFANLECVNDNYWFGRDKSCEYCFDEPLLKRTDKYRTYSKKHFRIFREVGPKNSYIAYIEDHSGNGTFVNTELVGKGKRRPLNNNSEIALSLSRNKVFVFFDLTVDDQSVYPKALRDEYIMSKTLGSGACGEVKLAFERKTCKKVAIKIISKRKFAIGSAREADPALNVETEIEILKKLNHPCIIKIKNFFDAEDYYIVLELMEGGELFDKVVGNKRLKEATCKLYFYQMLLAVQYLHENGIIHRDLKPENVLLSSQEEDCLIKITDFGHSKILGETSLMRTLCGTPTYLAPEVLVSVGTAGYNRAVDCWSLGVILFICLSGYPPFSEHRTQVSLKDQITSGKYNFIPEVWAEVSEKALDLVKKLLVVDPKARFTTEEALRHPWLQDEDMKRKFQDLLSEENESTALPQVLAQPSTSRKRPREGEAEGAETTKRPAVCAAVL

Q: What does the source list for `Cc1[nH]nc(C2CC2)c1-c1ccc2c(NC(=O)C3CC3)noc2c1`?
A: inhibition [1]: -2.7%; inhibition [2]: 1.7%; inhibition [3]: 1.7%; inhibition [4]: 8%; inhibition [5]: 2.3%; inhibition [6]: 1%; inhibition [7]: 11%; inhibition [8]: 8.7%; inhibition [9]: -1%; inhibition [10]: 2.3%; inhibition [11]: 0.7%

Q: Which results are given for `Cc1n[nH]c(C)c1-c1ccc2c(NC(=O)c3ccc(N4CCN(C)CC4)cc3)n[nH]c2c1`?
A: inhibition [12]: 84%; inhibition [13]: 2.3%; inhibition [14]: 8%; inhibition [15]: -3.3%; inhibition [16]: 2%; inhibition [17]: 33.3%; inhibition [18]: -1.7%; inhibition [19]: 5.7%; inhibition [20]: 0.3%; inhibition [21]: 13.3%; inhibition [22]: -6.7%; inhibition [23]: 35%

Q: Which results are given for `COC(=O)Nc1noc2cc(-c3c(-c4ccccn4)n[nH]c3C)ccc12`?
A: inhibition [24]: -5.3%; inhibition [25]: 9.7%
